These molecules were tested against ATP-dependent RNA helicase A (UniProt Q08211) (assay: Biochemical Assay).
Chain of ATP-dependent RNA helicase A (Q08211 whole entry): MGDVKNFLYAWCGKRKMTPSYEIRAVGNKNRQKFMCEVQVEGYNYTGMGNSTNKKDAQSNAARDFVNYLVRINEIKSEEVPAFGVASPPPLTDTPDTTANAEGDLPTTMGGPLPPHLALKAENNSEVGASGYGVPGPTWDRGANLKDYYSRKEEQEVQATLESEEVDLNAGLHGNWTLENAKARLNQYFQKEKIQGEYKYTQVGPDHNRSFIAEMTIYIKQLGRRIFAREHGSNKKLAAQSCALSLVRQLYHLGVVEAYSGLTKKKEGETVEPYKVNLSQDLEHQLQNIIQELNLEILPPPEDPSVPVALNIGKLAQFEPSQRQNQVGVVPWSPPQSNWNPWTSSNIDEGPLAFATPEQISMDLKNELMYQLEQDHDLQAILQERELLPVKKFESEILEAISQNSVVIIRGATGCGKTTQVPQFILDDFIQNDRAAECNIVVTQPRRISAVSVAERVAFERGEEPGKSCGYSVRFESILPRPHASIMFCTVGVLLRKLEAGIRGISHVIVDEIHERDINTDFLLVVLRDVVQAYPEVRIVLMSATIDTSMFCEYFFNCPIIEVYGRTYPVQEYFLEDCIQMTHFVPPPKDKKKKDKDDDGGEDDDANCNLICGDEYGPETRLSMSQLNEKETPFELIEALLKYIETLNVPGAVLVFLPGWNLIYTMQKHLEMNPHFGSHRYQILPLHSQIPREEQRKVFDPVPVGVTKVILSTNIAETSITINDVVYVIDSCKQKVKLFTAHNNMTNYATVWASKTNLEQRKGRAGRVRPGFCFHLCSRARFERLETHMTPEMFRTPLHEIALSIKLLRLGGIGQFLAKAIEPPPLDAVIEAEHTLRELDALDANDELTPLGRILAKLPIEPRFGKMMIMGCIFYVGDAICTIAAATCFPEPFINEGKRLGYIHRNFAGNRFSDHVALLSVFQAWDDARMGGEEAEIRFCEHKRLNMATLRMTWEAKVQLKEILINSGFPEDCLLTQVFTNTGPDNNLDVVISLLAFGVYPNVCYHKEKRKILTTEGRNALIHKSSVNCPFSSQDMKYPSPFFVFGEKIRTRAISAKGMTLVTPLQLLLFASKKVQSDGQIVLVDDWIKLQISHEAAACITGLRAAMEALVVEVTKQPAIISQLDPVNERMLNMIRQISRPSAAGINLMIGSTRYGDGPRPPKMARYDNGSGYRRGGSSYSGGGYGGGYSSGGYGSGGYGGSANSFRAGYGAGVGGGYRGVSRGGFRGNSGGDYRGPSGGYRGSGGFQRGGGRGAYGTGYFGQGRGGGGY

Row | SMILES | IC50 [nM]
1 | Cc1cc(C(=O)Nc2cc(Cl)cc(NS(C)(=O)=O)c2)cn1-c1ccccc1 [US20240316047, Example 129] | 38.4
2 | CC(C)(C)OC(=O)N1CCC(n2cc(C(=O)Nc3cc(Cl)cc(NS(C)(=O)=O)c3)cn2)CC1 [US20240316047, Example 136] | 234
3 | Cc1cccnc1-c1cc(C(=O)Nc2cc(Cl)cc(NS(C)(=O)=O)c2)cn1CC(F)F [US20240316047, Example 143] | 51.1
4 | Cc1sc(C(=O)Nc2cc(Cl)cc(NS(C)(=O)=O)c2)cc1-c1ncc(N2CCC3(C2)CC3(F)F)cn1 (centres undefined) [US20240316047, Example 491] | 10.8

Reference: BindingDB's records for patent US20240316047 (Accent Therapeutics, 2024)
